Residues, ends and D or L forms follow the SMILES beside them.
Target: T1, Endothelin-1 receptor (Sus scrofa, UniProt Q29010)
T1 sequence (Q29010 whole entry): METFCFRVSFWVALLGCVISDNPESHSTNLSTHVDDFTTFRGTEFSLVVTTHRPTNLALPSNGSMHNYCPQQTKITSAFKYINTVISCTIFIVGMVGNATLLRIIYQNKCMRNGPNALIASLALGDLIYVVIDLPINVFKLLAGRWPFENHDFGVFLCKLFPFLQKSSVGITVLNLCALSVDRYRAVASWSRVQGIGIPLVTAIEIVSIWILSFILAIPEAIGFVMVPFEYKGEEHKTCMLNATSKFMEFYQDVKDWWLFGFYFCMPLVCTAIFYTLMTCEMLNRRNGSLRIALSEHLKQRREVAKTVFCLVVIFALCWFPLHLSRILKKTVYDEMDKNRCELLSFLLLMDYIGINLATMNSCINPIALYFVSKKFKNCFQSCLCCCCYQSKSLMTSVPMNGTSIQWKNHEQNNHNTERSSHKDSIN
Test: Binding activity against Endothelin A receptor of Porcine aortic smooth muscle membranes

SMILES | IC50 max [nM]
CC(C)C[C@@H]1NC(=O)[C@@H](C(C)C)NC(=O)[C@@H]2CCCN2C(=O)[C@@H](CC(=O)O)NC(=O)[C@@H](Cc2c[nH]c3ccccc23)NC1=O (HELM PEPTIDE1{L.[dW].[dD].P.[dV]}$PEPTIDE1,PEPTIDE1,1:R1-5:R2$$$V2.0) | 22
CC(C)C[C@@H]1NC(=O)[C@@H](C(C)C)NC(=O)[C@@H]2CCCN2C(=O)[C@@H](CCC(=O)O)NC(=O)[C@@H](Cc2c[nH]c3ccccc23)NC1=O (HELM PEPTIDE1{L.[dW].[dE].P.[dV]}$PEPTIDE1,PEPTIDE1,1:R1-5:R2$$$V2.0) | 410
CC(C)C[C@@H]1NC(=O)[C@@H](C(C)C)NC(=O)[C@H](C)NC(=O)[C@@H](CC(=O)O)NC(=O)[C@@H](Cc2c[nH]c3ccccc23)NC1=O (HELM PEPTIDE1{A.[dV].L.[dW].[dD]}$PEPTIDE1,PEPTIDE1,1:R1-5:R2$$$V2.0) | 110
CC(C)[C@H]1NC(=O)[C@H](C)NC(=O)[C@@H](CC(=O)O)NC(=O)[C@@H](Cc2c[nH]c3ccccc23)NC(=O)[C@@H]2CCCN2C1=O (HELM PEPTIDE1{A.[dV].P.[dW].[dD]}$PEPTIDE1,PEPTIDE1,1:R1-5:R2$$$V2.0) | 8500
CC(C)C[C@H]1C(=O)N[C@H](Cc2c[nH]c3ccccc23)C(=O)N[C@H](CC(=O)O)C(=O)N2CCC[C@H]2C(=O)N[C@H](C(C)C)C(=O)N1C (HELM PEPTIDE1{[meL].[dW].[dD].P.[dV]}$PEPTIDE1,PEPTIDE1,1:R1-5:R2$$$V2.0) | 35
CC(C)C[C@@H]1NC(=O)[C@@H](C(C)C)NC(=O)[C@H](C)NC(=O)[C@@H](CCC(=O)O)NC(=O)[C@@H](Cc2c[nH]c3ccccc23)NC1=O (HELM PEPTIDE1{A.[dV].L.[dW].[dE]}$PEPTIDE1,PEPTIDE1,1:R1-5:R2$$$V2.0) | 3000
CC[C@H](C)[C@H]1NC(=O)[C@H](C)NC(=O)[C@@H](CCC(=O)O)NC(=O)[C@@H](Cc2c[nH]c3ccccc23)NC(=O)[C@H](CC(C)C)NC1=O (HELM PEPTIDE1{A.[CC[C@H](C)[C@@H](N[*:1])C(=O)[*:2]].L.[dW].[dE]}$PEPTIDE1,PEPTIDE1,1:R1-5:R2$$$V2.0) | 1400
CC(C)C[C@@H]1NC(=O)[C@@H](C(C)C)NC(=O)[C@H](C)N(C)C(=O)[C@@H](CC(=O)O)NC(=O)[C@@H](Cc2c[nH]c3ccccc23)NC1=O (HELM PEPTIDE1{L.[dW].[dD].[meA].[dV]}$PEPTIDE1,PEPTIDE1,1:R1-5:R2$$$V2.0) | 34
CC(C)C[C@@H]1NC(=O)[C@@H](C(C)C)NC(=O)CN(C)C(=O)[C@@H](CC(=O)O)NC(=O)[C@@H](Cc2c[nH]c3ccccc23)NC1=O (HELM PEPTIDE1{L.[dW].[dD].[Sar].[dV]}$PEPTIDE1,PEPTIDE1,1:R1-5:R2$$$V2.0) | 32
